These results are taken from patent US7713957B2, “Pharmaceutical composition containing gabapentin or pregabalin and N-type calcium channel antagonist” (Ajinomoto Co., Inc., priority 2002, dated 2010).

Read-outs that look alike come from different tables or passages of the source.

The inhibition is how much of the control response was suppressed.

The conditions of data set [1]: cited from earlier work.
The test system of a further data set is Sprague-Dawley rats. Description: Formalin test in rat pain models (flinching action, second phase). Type of data set: in vivo. On the procedure:
Analgesic activities were determined in the formalin test. Four test groups [a control group (given a saline solution) and groups given 30, 100 and 300 mg/kg of gabapentin] each composed of 6 to 7 male Sprague-Dawley rats (SD rats, 9 weeks old) were used for the experiment. Gabapentin was dissolved in a saline solution.
4 ml/kg of a saline solution or gabapentin was orally administered to the rats. Three hours after, the rats were tranquilized with halothane, and 2.5% formalin solution (100 μl) was injected subcutaneously to dorsal surface of the left hindpaw. Immediately thereafter, the rats were awaken from the anesthesia. […] The number of times of retracting action, i.e., flinching action of the hindpaw in which formalin had been injected, was counted for 1 minute at an interval of one minute until 5 minutes after the formalin injection, and for 1 minute at an interval of 5 minutes from 10 to 60 minutes after the injection. […] The total number of times of the flinching action observed 10 to 60 minutes after the formalin injection (the second phase) was taken as the index of the pain action.
Analgesic activities were determined in the formalin test. Four test groups [a control group, a group given the compound A (the compound of Referential Example 11: 3 mg/kg), a group given 100 mg/kg of gabapentin and a group given a combination of 3 mg/kg of the compound A and 100 mg/kg of gabapentin] each composed of 6 to 7 male Sprague-Dawley rats (SD rats, 9 weeks old) were used for the experiment. The administration volume to each group was as follows. In the control group, 5 ml/kg of 0.5% tragacanth solution and 4 ml/kg of a saline solution were given orally to the rats. In the group given the compound A, 5 ml/kg of the compound A suspended in 0.5% tragacanth solution and 4 ml/kg of a saline solution were given orally to them. In the group given gabapentin, 5 ml/kg of 0.5% tragacanth solution and 4 ml/kg of gabapentin dissolved in a saline solution were given orally to them. In the group given a combination of the compound A and gabapentin, 5 ml/kg of the compound A suspended in 0.5% tragacanth solution and 4 ml/kg of gabapentin dissolved in a saline solution were given orally to them.
Analgesic activities were determined in the formalin test. Four test groups [a control group, a group given the compound B (the compound of Referential Example 71: 3 mg/kg), a group given 100 mg/kg of gabapentin and a group given a combination of 3 mg/kg of the compound B and 100 mg/kg of gabapentin] each composed of 6 male Sprague-Dawley rats (SD rats, 9 weeks old) were used for the experiment. The administration volume to each group was as follows. In the control group, 3 ml/kg of polyethylene glycol 400 (PEG) and 4 ml/kg of a saline solution were given orally to the rats. In the group given the compound B, 3 ml/kg of the compound B dissolved in PEG and 4 ml/kg of a saline solution were given orally to them. In the group given gabapentin, 3 ml/kg of PEG and 4 ml/kg of gabapentin dissolved in a saline solution were given orally to them. In the group given the combination of compound B and gabapentin, 3 ml/kg of the compound B dissolved in PEG and 4 ml/kg of gabapentin dissolved in a saline solution were given orally to them.
Analgesic activities were determined in the formalin test. Four test groups [a control group (given a saline solution) and groups given 10, 30 and 100 mg/kg of pregabalin] each composed of 6 male Sprague-Dawley rats (SD rats, 9 weeks old) were used for the experiment. Pregabalin was dissolved in a saline solution. 4 ml/kg of a saline solution or pregabalin was orally administered to the rats.
Analgesic activities were determined in the formalin test.

For data set [2] the following is noted: clinical use; cited from earlier work.
The conditions of data set [3]: patients with post-herpetic neuralgia (Acta Neurol. Scand. 101:359-371, 2000); cited from earlier work.
The target in a further data set is T1, N-type calcium channel (Homo sapiens, UniProt Q00975).
T1 construct: host or cells: IMR-32 human neuroblastoma cells, differentiated with dibutyl cAMP and 5-bromodeoxyuridine for 10 to 14 days
Description: Antagonistic activity on N-type calcium channel (fluorescence dye method, IMR-32 cells). In kind it is cell-based. The conditions noted are these: 10 μM test compound, 60 mM KCl stimulation, 1 μM Nifedipine, read-out: Antagonistic activity on N-type calcium channels at 10 μM Inhibition rate (%). The protocol:
Antagonistic Activity on N-Type Calcium Channel (Fluorescence Dye Method)
Human neuroblastoma cells IMR-32 were obtained from ATCC (American Type Culture Collection). The medium used was a Phenol Red-free Eagle minimum essential medium containing earle's salts supplement (GIBCO) supplemented with 2 mM of L-glutamine (GIBCO), 1 mM of sodium pyruvate (pH 6.5) (GIBCO), antibiotic/antimycotic mixture (GIBCO) and 10% fetal calf serum (Cell Culture Technologies). 3 ml of 1×10^5 cells/ml IMR-32 cells were spread on the glass bottom of a dish (Iwaki Glsss Co., Ltd.) having a diameter of 35 mm which had been treated with poly-L-lysin (SIGMA) and collagen (COLLAGEN VITROGEN 100; Collagen Co.). After the culture for 1 day, 1 mM (final concentration) of dibutyl cAMP and 2.5 μM (final concentration) of 5-bromodeoxyuridine (SIGMA) were added. After the culture for additional 10 to 14 days, the cells were subjected to the activity determination.
The medium for IMR-32 cells thus prepared was replaced with 1 ml of Phenol Red-free and earle's salts supplemented Eagle minimum essential medium (GIBCO) containing 2.5 μM fura-2/AM (Dojin Kagaku, Co.), and the incubation was conducted at 37° C. for 30 minutes. […] Antagonistic activity on N-type calcium channel was determined and analyzed using a fluorescence microscope (Nikon Corporation) and an image analysis device ARGUS 50 (Hamamatsu Photonics). […]

T1 sequence (Q00975 whole entry): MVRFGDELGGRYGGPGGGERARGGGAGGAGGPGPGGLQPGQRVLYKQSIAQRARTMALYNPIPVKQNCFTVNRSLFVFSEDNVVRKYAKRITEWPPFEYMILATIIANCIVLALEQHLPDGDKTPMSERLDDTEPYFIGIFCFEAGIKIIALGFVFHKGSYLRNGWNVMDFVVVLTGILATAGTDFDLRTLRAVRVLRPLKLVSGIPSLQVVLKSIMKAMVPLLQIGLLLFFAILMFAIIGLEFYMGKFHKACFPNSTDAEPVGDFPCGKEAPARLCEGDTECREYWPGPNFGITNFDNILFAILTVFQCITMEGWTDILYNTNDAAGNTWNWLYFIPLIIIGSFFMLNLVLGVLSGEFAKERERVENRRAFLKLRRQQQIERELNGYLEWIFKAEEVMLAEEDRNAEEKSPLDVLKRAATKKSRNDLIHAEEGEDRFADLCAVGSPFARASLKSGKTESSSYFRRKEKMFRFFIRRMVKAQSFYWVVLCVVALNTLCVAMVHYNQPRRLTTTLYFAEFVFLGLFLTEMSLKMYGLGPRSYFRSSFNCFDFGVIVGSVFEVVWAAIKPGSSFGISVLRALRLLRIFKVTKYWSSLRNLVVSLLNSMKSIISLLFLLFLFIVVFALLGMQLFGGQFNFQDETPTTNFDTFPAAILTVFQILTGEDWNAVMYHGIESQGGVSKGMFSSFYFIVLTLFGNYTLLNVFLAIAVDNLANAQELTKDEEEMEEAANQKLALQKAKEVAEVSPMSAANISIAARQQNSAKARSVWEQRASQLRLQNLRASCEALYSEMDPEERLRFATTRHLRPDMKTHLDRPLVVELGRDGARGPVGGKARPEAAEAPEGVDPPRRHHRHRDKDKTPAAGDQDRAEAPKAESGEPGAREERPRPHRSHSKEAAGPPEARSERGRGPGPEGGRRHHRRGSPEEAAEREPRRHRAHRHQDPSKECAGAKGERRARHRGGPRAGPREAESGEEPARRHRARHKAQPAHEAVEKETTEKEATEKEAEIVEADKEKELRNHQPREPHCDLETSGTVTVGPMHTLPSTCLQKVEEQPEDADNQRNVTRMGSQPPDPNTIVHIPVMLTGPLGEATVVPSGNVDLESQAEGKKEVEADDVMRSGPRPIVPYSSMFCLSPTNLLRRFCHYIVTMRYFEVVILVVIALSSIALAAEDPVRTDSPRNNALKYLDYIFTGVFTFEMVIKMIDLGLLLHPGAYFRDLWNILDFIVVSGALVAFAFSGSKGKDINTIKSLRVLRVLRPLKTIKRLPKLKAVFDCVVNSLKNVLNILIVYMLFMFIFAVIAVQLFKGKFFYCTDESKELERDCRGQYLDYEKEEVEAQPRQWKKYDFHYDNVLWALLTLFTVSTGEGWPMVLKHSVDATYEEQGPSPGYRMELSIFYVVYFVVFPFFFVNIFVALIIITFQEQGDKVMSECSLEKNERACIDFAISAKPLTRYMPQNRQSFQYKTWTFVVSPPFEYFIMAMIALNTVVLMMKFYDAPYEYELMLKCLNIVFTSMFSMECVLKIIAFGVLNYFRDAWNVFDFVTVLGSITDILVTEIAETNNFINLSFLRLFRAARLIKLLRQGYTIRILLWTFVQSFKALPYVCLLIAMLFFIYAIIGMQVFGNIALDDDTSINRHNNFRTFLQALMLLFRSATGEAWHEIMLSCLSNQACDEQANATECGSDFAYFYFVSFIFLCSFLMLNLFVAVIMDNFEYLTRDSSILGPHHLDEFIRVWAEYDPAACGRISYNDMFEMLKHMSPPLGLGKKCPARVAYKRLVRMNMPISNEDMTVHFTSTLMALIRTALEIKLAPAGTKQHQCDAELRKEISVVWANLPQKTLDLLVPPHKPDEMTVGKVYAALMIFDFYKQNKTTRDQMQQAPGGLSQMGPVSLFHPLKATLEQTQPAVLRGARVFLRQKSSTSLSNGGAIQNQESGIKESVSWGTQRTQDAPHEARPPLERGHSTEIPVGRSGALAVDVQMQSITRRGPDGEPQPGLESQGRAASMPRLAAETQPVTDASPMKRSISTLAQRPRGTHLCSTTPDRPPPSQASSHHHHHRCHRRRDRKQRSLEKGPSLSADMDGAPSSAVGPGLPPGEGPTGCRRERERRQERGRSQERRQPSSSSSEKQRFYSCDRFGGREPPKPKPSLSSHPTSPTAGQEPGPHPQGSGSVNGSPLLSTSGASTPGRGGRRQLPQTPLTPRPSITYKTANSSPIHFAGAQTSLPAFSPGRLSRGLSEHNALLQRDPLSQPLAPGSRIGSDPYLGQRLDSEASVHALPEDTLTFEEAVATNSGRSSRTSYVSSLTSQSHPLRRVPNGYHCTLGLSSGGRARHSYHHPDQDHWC
T1 sequence (Q02641 whole entry partner): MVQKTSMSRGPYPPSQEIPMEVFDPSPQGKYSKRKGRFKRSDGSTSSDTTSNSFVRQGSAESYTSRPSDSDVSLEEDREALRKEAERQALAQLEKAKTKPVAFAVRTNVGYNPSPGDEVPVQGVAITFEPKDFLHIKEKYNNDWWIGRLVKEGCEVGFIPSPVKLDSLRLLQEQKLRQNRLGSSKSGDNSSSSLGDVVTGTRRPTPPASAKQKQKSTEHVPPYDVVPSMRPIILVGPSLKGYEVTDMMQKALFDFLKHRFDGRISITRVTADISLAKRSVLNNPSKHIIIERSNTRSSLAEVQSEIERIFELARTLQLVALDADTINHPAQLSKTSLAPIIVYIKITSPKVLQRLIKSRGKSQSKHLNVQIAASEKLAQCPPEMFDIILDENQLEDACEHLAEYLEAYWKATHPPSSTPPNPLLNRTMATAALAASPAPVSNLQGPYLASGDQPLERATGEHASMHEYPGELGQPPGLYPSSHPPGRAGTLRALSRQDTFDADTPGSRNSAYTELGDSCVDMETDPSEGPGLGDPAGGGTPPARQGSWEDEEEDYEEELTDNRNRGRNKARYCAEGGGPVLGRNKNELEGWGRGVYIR
T1 sequence (P54289 25-956 partner limits assumed): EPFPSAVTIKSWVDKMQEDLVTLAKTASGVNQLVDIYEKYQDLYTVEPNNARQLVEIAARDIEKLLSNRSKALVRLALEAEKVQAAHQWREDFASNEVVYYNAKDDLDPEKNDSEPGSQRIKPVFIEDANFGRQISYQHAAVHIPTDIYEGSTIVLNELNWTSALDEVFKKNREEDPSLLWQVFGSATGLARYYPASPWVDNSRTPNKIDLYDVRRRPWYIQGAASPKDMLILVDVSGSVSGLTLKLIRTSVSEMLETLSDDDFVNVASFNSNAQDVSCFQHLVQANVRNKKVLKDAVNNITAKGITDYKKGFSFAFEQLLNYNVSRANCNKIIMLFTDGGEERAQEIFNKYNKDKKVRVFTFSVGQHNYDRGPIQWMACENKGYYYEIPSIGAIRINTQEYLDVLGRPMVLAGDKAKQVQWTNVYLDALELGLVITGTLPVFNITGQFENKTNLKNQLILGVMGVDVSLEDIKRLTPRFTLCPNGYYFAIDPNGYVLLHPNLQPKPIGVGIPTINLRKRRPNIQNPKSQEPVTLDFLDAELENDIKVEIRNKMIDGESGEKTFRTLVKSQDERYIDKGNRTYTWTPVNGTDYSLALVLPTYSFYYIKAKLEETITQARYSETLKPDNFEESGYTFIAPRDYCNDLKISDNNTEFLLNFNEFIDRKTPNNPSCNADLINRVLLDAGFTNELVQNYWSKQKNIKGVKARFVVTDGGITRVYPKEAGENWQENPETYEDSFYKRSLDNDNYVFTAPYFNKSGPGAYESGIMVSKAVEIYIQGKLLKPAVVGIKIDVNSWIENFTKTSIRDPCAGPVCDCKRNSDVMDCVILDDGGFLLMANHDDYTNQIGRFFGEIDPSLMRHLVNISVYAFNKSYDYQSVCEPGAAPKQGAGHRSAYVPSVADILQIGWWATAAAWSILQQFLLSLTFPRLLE
T1 sequence (P54289 957-1103 partner limits assumed): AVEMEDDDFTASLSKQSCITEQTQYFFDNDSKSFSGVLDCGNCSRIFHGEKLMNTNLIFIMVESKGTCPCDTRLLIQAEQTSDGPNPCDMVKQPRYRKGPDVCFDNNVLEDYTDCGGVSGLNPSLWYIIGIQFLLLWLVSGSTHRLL

Take `CC(C)C[C@H](CN)CC(=O)O` [pregabalin, (S)-3-(aminomethyl)-5-methylhexanoic acid]: the “motor function of the body” value in data set [1] (whole body administration of 100 mg/kg or more) was “significant decrease in motor function of the body”. The “inhibiting ratio of flinches” value in the data set with Sprague-Dawley rats (Example 4, 10 mg/kg oral, vs control group) was 31%; with Sprague-Dawley rats (Example 4, 30 mg/kg oral, vs control group), 61%; with Sprague-Dawley rats (Example 4, 100 mg/kg oral, vs control group), 61%; with Sprague-Dawley rats (Example 5, 30 mg/kg oral), 48%. Further, the side-effects result in data set [2] is “somnolence and dizziness”.

As for `NCC1(CC(=O)O)CCCCC1` [gabapentin, 1-(aminomethyl)-cyclohexaneacetic acid], the treatment effectiveness result in data set [3] was “approximately 60%”. In addition, the “motor function of the body” value in data set [1] (whole body administration of 300 mg/kg or more) is recorded as “significant decrease in motor function of the body”. Moreover, the “inhibiting ratio of flinches” value is recorded as 11% in the data set on Sprague-Dawley rats (Example 1, 30 mg/kg oral, vs control group); 42% in the data set on Sprague-Dawley rats (Example 1, 100 mg/kg oral, vs control group); 47% in the data set with Sprague-Dawley rats (Example 1, 300 mg/kg oral, vs control group); 47% with Sprague-Dawley rats (Example 2, 100 mg/kg oral); 59% with Sprague-Dawley rats (Example 3, 100 mg/kg oral). For the same compound, the side-effects result in data set [2] is “somnolence and dizziness”.

Turning to `CC(C)(C)C(=O)NCCC(=O)N1CCC(=C2c3ccccc3C=Cc3ccccc32)CC1` [Referential Example 11, N-{3-[4-(5H-dibenzo[a, d] [7]annulen-5-ylidene)-1-piperidinyl]-3-oxopropyl}-2,2-dimethylpropanamide], the “inhibiting ratio of flinches” value in the data set on Sprague-Dawley rats (Example 2, 3 mg/kg oral, suspended in 0.5% tragacanth) amounted to 38%.

Consider `CC(C)(C)C(=O)N[C@H](CO)CCC(=O)N1CCC(=C2c3ccccc3C=Cc3ccccc32)CC1` [Referential Example 71, (S)-N-[4-[4-(5H-dibenzo[a,d] [7]annulen-5-ylidene)-1-piperidinyl]-1-(hydroxylmethyl)-4-oxobutyl]-2.2-dimethylpropanamide], for which the “inhibiting ratio of flinches” value is reported as 16% in the data set on Sprague-Dawley rats (Example 3, 3 mg/kg oral, dissolved in PEG) and 7% in the data set on Sprague-Dawley rats (Example 5, 3 mg/kg oral, dissolved in PEG).

Regarding `CC(C)(C)CC(=O)NCCCNC(=O)C=C1c2ccccc2C=Cc2ccccc21` [Example 41], the inhibition at 10 µM on N-type calcium channel amounted to 76%.
